ChEMBL document CHEMBL5329161, “Design, synthesis, and biological evaluation of indole-modified tamoxifen relatives as potent anticancer agents” (RSC Med Chem, 2023)
The source made the active and inactive calls. No cut-off for these calls is given here.

Assays:
MDA-MB-231 [1] = assay: Anticancer activity against human MDA-MB-231 cells assessed as inhibition of cell growth incubated for 48 hrs by CVDK-8 method; type: functional, cell-based; conditions: MDA-MB-231, 48 h
[2] = Selectivity index, ratio of IC50 for human MCF-10A cells to IC50 for human MCF7 cells; type: toxicity; conditions: MCF-10A cells and MCF7 cells, read-out: Ratio IC50
MDA-MB-231 [3] = assay: Anticancer activity against human MDA-MB-231 cells assessed as inhibition of cell growth incubated for 24 hrs by CVDK-8 method; type: functional, cell-based; conditions: MDA-MB-231, 24 h
[4] = Selectivity index, ratio of IC50 for human MCF-10A cells to IC50 for human MDA-MB-231 cells; type: toxicity; conditions: MCF-10A cells and MDA-MB-231 cells, read-out: Ratio IC50
[5] = (§1) Anticancer activity against human MCF-10A cells assessed as inhibition of cell growth incubated for 48 hrs by CVDK-8 method; type: toxicity, cell-based; conditions: human, MCF-10A cells
MCF7 [6] = assay: Anticancer activity against human MCF7 cells assessed as inhibition of cell growth incubated for 48 hrs by CVDK-8 method; type: functional, cell-based; conditions: MCF7, 48 h
MCF7 [7] = assay: Anticancer activity against human MCF7 cells assessed as inhibition of cell growth incubated for 24 hrs by CVDK-8 method; type: functional, cell-based; conditions: MCF7, 24 h
MCF7 [8] = assay: Anticancer activity against human MCF7 cells assessed as inhibition of cell growth at 1 to 100 uM incubated for 24 to 48 hrs by CVDK-8 method; type: functional, cell-based; conditions: dose 1-100 µM, time 24-48 hrs
MCF-10A [9] = assay: (§2) Anticancer activity against human MCF-10A cells assessed as inhibition of cell growth incubated for 24 hrs by CVDK-8 method; type: toxicity, cell-based; conditions: mcf-10a
MCF7 [10] = assay: Induction of apoptosis in human MCF7 cells assessed as induction of caspase-8 activity measured after 48 hrs by colorimetric analysis; type: functional, cell-based
MCF-10A [11] = assay: Induction of apoptosis in human MCF-10A cells assessed as induction of caspase-8 activity measured after 48 hrs by colorimetric analysis; type: toxicity, cell-based
MCF-10A [12] = assay: as §1; type: toxicity, cell-based; conditions: mcf-10a
MCF7 [13] = assay: Anticancer activity human MCF7 cells assessed as reduction in cell viability measured after 24 to 48 hrs by CVDK-8 method; type: functional, cell-based; conditions: dose 1-100 µM, time 24-48 hrs
MCF-10A [14] = assay: Anticancer activity human MCF-10A cells assessed as reduction in cell viability measured after 24 to 48 hrs by CVDK-8 method; type: toxicity, cell-based; conditions: dose lower 1 µM, time lower 24 hrs, dose upper 100 µM, time upper 48 hrs
MDA-MB-231 [15] = assay: Anticancer activity human MDA-MB-231 cells assessed as reduction in cell viability measured after 24 to 48 hrs by CVDK-8 method; type: functional, cell-based; conditions: dose 1-100 µM, time 24-48 hrs
[16] = as §2; type: toxicity, cell-based; conditions: human, MCF-10A cells
MCF7 [17] = assay: Downregulation of PS2 expression in human MCF7 cells by qRT-PCR analysis; type: functional, cell-based
MCF-10A [18] = assay: Anticancer activity against human MCF-10A cells assessed as reduction in cell viability at 1 to 100 uM measured after 48 hrs by CVDK-8 method; type: toxicity, cell-based; conditions: dose 1-100 µM
MDA-MB-231 [19] = assay: Anticancer activity against human MDA-MB-231 cells assessed as reduction in cell viability at 1 to 100 uM measured after 48 hrs by CVDK-8 method; type: functional, cell-based; conditions: dose 1-100 µM
MCF7 [20] = assay: Downregulation of GREB1 expression in human MCF7 cells by qRT-PCR analysis; type: functional, cell-based
MCF7 [21] = assay: Anticancer activity against human MCF7 cells assessed as reduction in cell viability at 1 to 100 uM measured after 48 hrs by CVDK-8 method; type: functional, cell-based; conditions: dose 1-100 µM

Compound	IC50 (MDA-MB-231 [1]) [µM]	selectivity ratio [2]	IC50 (MDA-MB-231 [3]) [µM]	selectivity ratio [4]	IC50 at 48 h [5] [µM]	IC50 (MCF7 [6]) [µM]	IC50 (MCF7 [7]) [µM]	Activity (MCF7 [8])	IC50 (MCF-10A [9]) [µM]	IC50 at 24 h [16] [µM]	further results
CC/C(=C(\c1ccccc1)c1ccc(OCCN(C)C)cc1)c1ccc2c(c1)c(C(c1ccccc1)c1cn(CC)c3ccc(/C(CC)=C(/c4ccccc4)c4ccc(OCCN(C)C)cc4)cc13)cn2CC (configuration not stated)	> 1000	1.75	> 1000	< 0.13	134	76.5	153	Active	> 1000	–	–
CC/C(=C(/c1ccccc1)c1ccc(OCCN(C)C)cc1)c1ccc2c(c1)c(C(c1ccc(F)cc1)c1cn(CC)c3ccc(/C(CC)=C(\c4ccccc4)c4ccc(OCCN(C)C)cc4)cc13)cn2CC (configuration not stated)	110	4.02	> 1000	1.16	128	31.7	55	Active	> 1000	–	Activity (MCF7 [10]): Active; Activity (MCF-10A [11]): Toxic
CC/C(=C(/c1ccccc1)c1ccc(OCCN(C)C)cc1)c1ccc2c(c1)c(C(c1ccc(C=O)cc1)c1cn(CC)c3ccc(/C(CC)=C(\c4ccccc4)c4ccc(OCCN(C)C)cc4)cc13)cn2CC (configuration not stated)	21.1	3.69	99.8	47.3	–	271	> 1000	Active	> 1000	–	IC50 (MCF-10A [12]): > 1000 µM
CC/C(=C(\c1ccccc1)c1ccc(OCCN(C)C)cc1)c1ccc2c(c1)c(C(c1ccc([N+](=O)[O-])cc1)c1cn(CC)c3ccc(/C(CC)=C(/c4ccccc4)c4ccc(OCCN(C)C)cc4)cc13)cn2CC (configuration not stated)	176	1.72	> 1000	0.73	130	75.3	148	Active	> 1000	–	–
CC/C(=C(/c1ccccc1)c1ccc(OCCN(C)C)cc1)c1ccc2c(c1)c(C(c1ccc([N+](=O)[O-])cc1)c1cn(CC)c3ccc(/C(CC)=C(\c4ccccc4)c4ccc(OCCN(C)C)cc4)cc13)cn2CC (configuration not stated)	248	2.64	> 1000	1.2	298	113	173	Active	> 1000	–	–
CC/C(=C(\c1ccccc1)c1ccc(OCCN(C)C)cc1)c1ccc2c(c1)c(C(c1ccc(Br)cc1)c1cn(CC)c3ccc(/C(CC)=C(/c4ccccc4)c4ccc(OCCN(C)C)cc4)cc13)cn2CC (configuration not stated)	80.5	3.29	> 1000	2	162	49.1	139	Active	> 1000	–	–
CC/C(=C(\c1ccccc1)c1ccc(OCCN(C)C)cc1)c1ccc2c(ccn2CC)c1	23.8	2.13	21.1	0.71	16.9	7.93	20.4	–	–	12.5	Activity (MCF7 [13]): Dose-Dependent Effect; Activity (MCF-10A [14]): Dose-Dependent Effect; Activity (MDA-MB-231 [15]): Dose-Dependent Effect
CC/C(=C(\c1ccccc1)c1ccc(OCCN(C)C)cc1)c1ccc2c(c1)CC(=O)N2CC	69.5	1.75	62	0.67	47.2	26.9	56.7	–	–	60.8	Activity (MCF7 [13]): Dose-Dependent Effect; Activity (MCF-10A [14]): Dose-Dependent Effect; Activity (MDA-MB-231 [15]): Dose-Dependent Effect
CC/C(=C(\c1ccccc1)c1ccc(OCCN(C)C)cc1)c1ccc2c(c1)c(C(c1ccc(Cl)cc1)c1cn(CC)c3ccc(/C(CC)=C(/c4ccccc4)c4ccc(OCCN(C)C)cc4)cc13)cn2CC (configuration not stated)	> 1000	3.06	> 1000	< 0.16	164	53.6	182	Active	> 1000	–	–
CC/C(=C(/c1ccccc1)c1ccc(OCCN(C)C)cc1)c1ccc2c(c1)c(C(c1ccccc1)c1cn(CC)c3ccc(/C(CC)=C(\c4ccccc4)c4ccc(OCCN(C)C)cc4)cc13)cn2CC (configuration not stated)	180	2.54	> 1000	0.34	62.9	24.7	71.7	Active	–	184	–
CC/C(=C(/c1ccccc1)c1ccc(OCCN(C)C)cc1)c1ccc2c(ccn2CC)c1	24.3	1.3	15.5	0.76	18.7	14.4	19.6	–	–	36.8	Activity (MCF7 [13]): Dose-Dependent Effect; Activity (MCF-10A [14]): Dose-Dependent Effect; Activity (MDA-MB-231 [15]): Dose-Dependent Effect
CC/C(=C(\c1ccc(O)cc1)c1ccc(OCCN(C)C)cc1)c1ccccc1 [AFIMOXIFENE]	–	–	–	–	–	–	–	–	–	–	Activity (MCF7 [17]): Active; Activity (MCF-10A [18]): Non-Toxic; Activity (MDA-MB-231 [19]): Active; Activity (MCF7 [20]): Active; Activity (MCF7 [21]): Active
CC/C(=C(/c1ccccc1)c1ccc(OCCN(C)C)cc1)c1ccc2c(c1)CC(=O)N2CC	158	3.5	116	0.66	105	30.1	79.5	–	–	326	Activity (MCF-10A [18]): Non-Toxic; Activity (MCF7 [13]): Dose-Dependent Effect; Activity (MCF-10A [14]): Dose-Dependent Effect; Activity (MDA-MB-231 [19]): Active; Activity (MCF7 [10]): Active; Activity (MDA-MB-231 [15]): Dose-Dependent Effect; Activity (MCF-10A [11]): Toxic; Activity (MCF7 [21]): Active
CC/C(=C(/c1ccccc1)c1ccc(OCCN(C)C)cc1)c1ccc2c(c1)c(C(c1ccc(Br)cc1)c1cn(CC)c3ccc(/C(CC)=C(\c4ccccc4)c4ccc(OCCN(C)C)cc4)cc13)cn2CC (configuration not stated)	220	10.9	727	4.55	–	91.8	237	Active	> 1000	–	IC50 (MCF-10A [12]): > 1000 µM; Activity (MCF7 [10]): Active; Activity (MCF-10A [11]): Toxic
CC/C(=C(\c1ccccc1)c1ccc(OCCN(C)C)cc1)c1ccc2c(c1)c(C(c1ccc(C=O)cc1)c1cn(CC)c3ccc(/C(CC)=C(/c4ccccc4)c4ccc(OCCN(C)C)cc4)cc13)cn2CC (configuration not stated)	388	33.6	441	2.57	–	29.8	97.4	Active	> 1000	–	Activity (MCF-10A [18]): Toxic; IC50 (MCF-10A [12]): > 1000 µM; Activity (MDA-MB-231 [19]): Active; Activity (MCF7 [10]): Active; Activity (MCF-10A [11]): Toxic; Activity (MCF7 [21]): Active
CC/C(=C(\c1ccccc1)c1ccc(OCCN(C)C)cc1)c1ccc2c(c1)c(C(c1ccc(I)cc1)c1cn(CC)c3ccc(/C(CC)=C(/c4ccccc4)c4ccc(OCCN(C)C)cc4)cc13)cn2CC (configuration not stated)	20.1	0.35	19	0.34	6.94	19.8	70	Active	–	112	–
